One substance from US12492403B2, “Aptamers and the use thereof in the treatment of cancer” (FUNDACIÓN PARA LA INVESTIGACIÓN BIOMÉDICA DEL HOSPITAL …, priority 2018, dated 2025) can be followed below.

Series [1] is described as follows: Stability in human plasma. In kind it is in vitro ADME. The conditions noted are these: 37° C., 72 hours. As to the method:
FIGS. 7A and 7B. Stability of apMNKQ2. Chip Experion™ DNA 1K Analysis Kit (BioRad, USA) for analyzing the stability of apMNKQ2 with 1 unit, 0.5 units, and 0.25 units of DNase I (FIG. 7A). In FIG. 7B, the degradation of aptamer apMNKQ2 in human plasma at 0, 6, 16, 24, 48, and 72 hours is depicted.
The previously structured aptamer apMNKQ2 (1 μg) was incubated in the presence of 1 unit, 0.5 units, and 0.25 units of the enzyme DNase I (ThermoFisher Scientific, USA) in the buffer supplied by the company (10 mM Tris HCl, pH 7.5, 2.5 mM MgCl2, 0.1 mM CaCl2)) for 5 minutes at 37° C., and the reaction was then stopped by adding 1 μL of 50 mM EDTA (ThermoFisher Scientific, USA) and heating at 65° C. for 10 minutes. […] The samples were analyzed using an Experion™ DNA 1K Analysis Kit chip (BioRad, USA). The intensity of each of the bands corresponding to the aptamers treated or not treated with DNase I or plasmas was assessed and the percentage of stability was calculated by dividing the value obtained for each of the treated aptamers by the value obtained for the untreated aptamer.
Resistance of the aptamer to degradation by DNases was analyzed by incubating […] of structured apMNKQ2 in the presence of three concentrations of DNase I (Thermo Scientific, USA), as described in the Materials and Methods section. […]

For series [2], the system named is 4T1 cells. Put plainly: Transwell invasion assay in 4T1 cells. In kind it is cell-based, mouse. The settings on record: 500 nM, 48 h invasion. The procedure: FIG. 21A-21E. In vivo efficacy of apMNKQ2 in a mouse metastatic model with an orthotopic xenograft of 4T1 cells. (A) Effect of apMNKQ2 aptamer on the proliferation of 4T1 cells (mouse breast tumor line). 4T1 cells were seeded in p96 at a density of 1.5×10^3 cells/well. […] The graph (FIG. 21A) represents the means±SEM of 3 independent experiments. (B) Effect of apMNKQ2 aptamer on migration and invasion of 4T1 cells. Cells were seeded in p6 at a density of 2×10^5 cells/well and transfected with 500 nM apMNKQ2 at 24 hours. […] At 24 hours (migration) or 48 h (invasion), the transwell membranes were stained with Hoechst and the cells that had passed through the fluorescence microscopy were quantified. […] The number of metastases is analyzed by the reverse staining method (with Chinese ink) and the metastases grouped according to their size in four groups (0.5, 1, 2 and >2). […]
Cell migration and invasion assays were performed using transwell (Corning, USA). […] After that time, they were collected, counted, and reseeded 4×10^4 cells in 300 μl of a serum-free complete medium inside the transwell (migration) or a transwell on which a layer of 100 μL of Matrigel (Corning, USA) (invasion) had previously been polymerized. […] Finally, two washes in PBS were performed, and 5 photographs of each membrane of the transwell were taken using a fluorescence microscope (Olympus IX70). […]

The test system of series [3] is AKT. Put plainly: Western blot of phosphorylation, combined therapy study. In kind it is cell-based, human. The settings on record: MDA-MB-231 and MCF7 cells, 24 hours. The procedure: (§1) FIG. 22A & 22B. Combined therapy studies of apMNKQ2 and everolimus. […] The different antibodies used are indicated.
(§2) Seventy-two hours after treatment, MTT activity was measured.

The subject of series [4] is eIF4E. Described as above. It is filed as cell-based, human. The conditions noted are these: MDA-MB-231 and MCF7 cells, 24 hours. The procedure: as §1, §2
For series [5], the system named is ribosomal protein S6. Described as above. In kind it is cell-based, human. The settings on record: MDA-MB-231 and MCF7 cells, 24 hours. The procedure: as §1, §2

Consider “5′TGGGGTGGGCGGGCGGGGGTGGGGGTGGT-3′ (DNA, backbone and methylation of C not given here; further chemistry not fully specified) [apMNKQ2]”, for which the “degradation in human plasma” value in series [1] is listed as “no degradation”. Moreover, the “invasion of 4T1 cells” value in series [2] is “significantly decrease”. The “phosphorylation of AKT” value in series [3] is reported as “no effect”. Moreover, in series [4], the “phosphorylation of eIF4E” value is listed as “no effect”. In addition, the “phosphorylation of ribosomal protein S6 (dependent on mTOR activity)” value in series [5] was “also affects this phosphorylation”.
